Measured values published in US10131657B2, “Bromodomain inhibitors” (AbbVie Inc., priority 2013, dated 2018).

The molecules below were run on breast cancer cell line MX-1 (assay: MX-1 cell line proliferation assay, Method A). Conditions: Homo sapiens, MX1; MX-1 cells, 96-well, 72 hours, Cell Titer Glo; read-out: Cellular proliferation: EC50 Method A.
Assay type: cell-based
Summary of the method: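 MX-1 breast cancer cells (5000/well) were attached overnight in RPMI 1640 with 10% FBS, then exposed for 3 days to compound at 0.0001–3 μM final. Cell Titer Glo luminescence was normalized to DMSO controls, and EC50s were obtained by sigmoidal fitting.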

How did the EC50 turn out when `Cn1cc(-c2cc(S(C)(=O)=O)ccc2Oc2cccc(NS(=O)(=O)c3ccc(S(C)(=O)=O)cc3)c2)c2cc[nH]c2c1=O` [Example 54, N-{3-[2-(6-methyl-7-oxo-6,7-dihydro-1H-pyrrolo[2,3-c]pyridin-4-yl)-4-(methylsulfonyl)phenoxy]phenyl}-4-(methylsulfonyl)benzenesulfonamide] was run?
Its EC50 is > 1000 nM.

How did the EC50 turn out when `Cn1cc(-c2cc(S(C)(=O)=O)ccc2Oc2cccc(NS(=O)(=O)c3ccc([N+](=O)[O-])cc3)c2)c2cc[nH]c2c1=O` [Example 43, N-{3-[2-(6-methyl-7-oxo-6,7-dihydro-1H-pyrrolo[2,3-c]pyridin-4-yl)-4-(methylsulfonyl)phenoxy]phenyl}-4-nitrobenzenesulfonamide] was run?
The EC50 was 451 nM.

Which EC50 does the source give for `Cn1cc(-c2cc(S(C)(=O)=O)ccc2Oc2cccc(NS(=O)(=O)Cc3ccccc3)c2)c2cc[nH]c2c1=O` [Example 38, N-{3-[2-(6-methyl-7-oxo-6,7-dihydro-1H-pyrrolo[2,3-c]pyridin-4-yl)-4-(methylsulfonyl)phenoxy]phenyl}-1-phenylmethanesulfonamide] here?
The EC50 was 103 nM.

For `COc1cccc(S(=O)(=O)Nc2cccc(Oc3ccc(S(C)(=O)=O)cc3-c3cn(C)c(=O)c4[nH]ccc34)c2)c1` [Example 42, 3-methoxy-N-{3-[2-(6-methyl-7-oxo-6,7-dihydro-1H-pyrrolo[2,3-c]pyridin-4-yl)-4-(methylsulfonyl)phenoxy]phenyl}benzenesulfonamide], which EC50 is on record?
Its EC50 is 157 nM.

For `CSCCCN[C@H]1CC[C@H](Nc2ccc(S(C)(=O)=O)cc2-c2cn(C)c(=O)c3[nH]ccc23)CC1` [Example 112, 6-methyl-4-{2-[(trans-4-{[3-(methylsulfanyl)propyl]amino}cyclohexyl)amino]-5-(methylsulfonyl)phenyl}-1,6-dihydro-7H-pyrrolo[2,3-c]pyridin-7-one], which EC50 is on record?
The EC50 was 142 nM.

For `CN(C)CCNC(=O)c1cccc(Oc2ccc(S(C)(=O)=O)cc2-c2cn(C)c(=O)c3[nH]ccc23)c1` [Example 33, N-[2-(dimethylamino)ethyl]-3-[2-(6-methyl-7-oxo-6,7-dihydro-1H-pyrrolo[2,3-c]pyridin-4-yl)-4-(methylsulfonyl)phenoxy]benzamide], which EC50 is on record?
The EC50 was > 1000 nM.

For `CN1CCN(CC(=O)N2CCC(Nc3ccc(S(C)(=O)=O)cc3-c3cn(C)c(=O)c4[nH]ccc34)CC2)CC1` [Example 96, 6-methyl-4-[2-({1-[(4-methylpiperazin-1-yl)acetyl]piperidin-4-yl}amino)-5-(methylsulfonyl)phenyl]-1,6-dihydro-7H-pyrrolo[2,3-c]pyridin-7-one], which EC50 is on record?
The EC50 was > 1000 nM.

How did the EC50 turn out when `Cn1cc(-c2cc(S(C)(=O)=O)ccc2Oc2cccc(NCc3ccc(F)cc3)c2)c2cc[nH]c2c1=O` [Example 62, 4-[2-{3-[(4-fluorobenzyl)amino]phenoxy}-5-(methylsulfonyl)phenyl]-6-methyl-1,6-dihydro-7H-pyrrolo[2,3-c]pyridin-7-one] was run?
The EC50 was 51.1 nM.

For `Cn1cc(-c2cc(S(C)(=O)=O)ccc2Oc2cccc(NCc3ccc(C#N)cc3)c2)c2cc[nH]c2c1=O` [Example 61, 4-[({3-[2-(6-methyl-7-oxo-6,7-dihydro-1H-pyrrolo[2,3-c]pyridin-4-yl)-4-(methylsulfonyl)phenoxy]phenyl}amino)methyl]benzonitrile], which EC50 is on record?
Its EC50 is 43 nM.

With `Cn1cc(-c2cc(S(C)(=O)=O)ccc2Oc2cccc(C(=O)N3CCC(C(F)(F)F)CC3)c2)c2cc[nH]c2c1=O` [Example 31, 6-methyl-4-[5-(methylsulfonyl)-2-(3-{[4-(trifluoromethyl)piperidin-1-yl]carbonyl}phenoxy)phenyl]-1,6-dihydro-7H-pyrrolo[2,3-c]pyridin-7-one] as the molecule, how does the EC50 read?
Its EC50 is 443 nM.

For `Cn1cc(-c2cc(S(C)(=O)=O)ccc2Oc2cccc(C(=O)NCCN3CCCC3)c2)c2cc[nH]c2c1=O` [Example 35, 3-[2-(6-methyl-7-oxo-6,7-dihydro-1H-pyrrolo[2,3-c]pyridin-4-yl)-4-(methylsulfonyl)phenoxy]-N-[2-(pyrrolidin-1-yl)ethyl]benzamide], which EC50 is on record?
The EC50 was 406 nM.

`CCS(=O)(=O)Nc1cc(-c2cn(C)c(=O)c3[nH]ccc23)c(Oc2ccc(F)cc2F)cc1C(=O)NC1CCCC1` [Example 9, N-cyclopentyl-5-(2,4-difluorophenoxy)-2-[(ethylsulfonyl)amino]-4-(6-methyl-7-oxo-6,7-dihydro-1H-pyrrolo[2,3-c]pyridin-4-yl)benzamide] was tested. Which EC50 did it give?
Its EC50 is 65.3 nM.

Which EC50 does the source give for `CCS(=O)(=O)Nc1cc(-c2cn(C)c(=O)c3[nH]ccc23)c(Oc2ccc(F)cc2F)cc1CNC1CCCC1` [Example 7, N-{2-[(cyclopentylamino)methyl]-4-(2,4-difluorophenoxy)-5-(6-methyl-7-oxo-6,7-dihydro-1H-pyrrolo[2,3-c]pyridin-4-yl)phenyl}ethanesulfonamide] here?
Its EC50 is 139 nM.

How did the EC50 turn out when `CCS(=O)(=O)c1ccc(OCC2CC2(F)F)c(-c2cn(C)c(=O)c3[nH]c(CN4CCN(c5ccncc5)CC4)cc23)c1` (stereo not shown) [Example 16, 4-{2-[(2,2-difluorocyclopropyl)methoxy]-5-(ethylsulfonyl)phenyl}-6-methyl-2-{[4-(pyridin-4-yl)piperazin-1-yl]methyl}-1,6-dihydro-7H-pyrrolo[2,3-c]pyridin-7-one] was run?
The EC50 was 202 nM.

With `Cn1cc(-c2cc(S(C)(=O)=O)ccc2Oc2cccc(NCC3CCCO3)c2)c2cc[nH]c2c1=O` (stereo not shown) [Example 65, 6-methyl-4-[5-(methylsulfonyl)-2-{3-[(tetrahydrofuran-2-ylmethyl)amino]phenoxy}phenyl]-1,6-dihydro-7H-pyrrolo[2,3-c]pyridin-7-one] as the molecule, how does the EC50 read?
Its EC50 is 40 nM.

With `Cc1cc(C)n(C2CN(Cc3cc4c(-c5cc(S(C)(=O)=O)ccc5Oc5ccc(F)cc5F)cn(C)c(=O)c4[nH]3)C2)n1` [Example 129, 4-[2-(2,4-difluorophenoxy)-5-(methylsulfonyl)phenyl]-2-{[3-(3,5-dimethyl-1H-pyrazol-1-yl)azetidin-1-yl]methyl}-6-methyl-1,6-dihydro-7H-pyrrolo[2,3-c]pyridin-7-one] as the molecule, how does the EC50 read?
Its EC50 is 249 nM.

For `Cn1cc(-c2cc(S(C)(=O)=O)ccc2Oc2cccc(NS(=O)(=O)c3cccc(F)c3)c2)c2cc[nH]c2c1=O` [Example 40, 3-fluoro-N-{3-[2-(6-methyl-7-oxo-6,7-dihydro-1H-pyrrolo[2,3-c]pyridin-4-yl)-4-(methylsulfonyl)phenoxy]phenyl}benzenesulfonamide], which EC50 is on record?
Its EC50 is 143 nM.

For `CCS(=O)(=O)Nc1cc(-c2cn(C)c(=O)c3[nH]ccc23)c(Oc2ccc(F)cc2F)cc1C(=O)O` [Example 11, 5-(2,4-difluorophenoxy)-2-[(ethylsulfonyl)amino]-4-(6-methyl-7-oxo-6,7-dihydro-1H-pyrrolo[2,3-c]pyridin-4-yl)benzoic acid], which EC50 is on record?
The EC50 was 452 nM.

Which EC50 does the source give for `COCCNc1cccc(Oc2ccc(S(C)(=O)=O)cc2-c2cn(C)c(=O)c3[nH]ccc23)c1` [Example 64, 4-[2-{3-[(2-methoxyethyl)amino]phenoxy}-5-(methylsulfonyl)phenyl]-6-methyl-1,6-dihydro-7H-pyrrolo[2,3-c]pyridin-7-one] here?
The EC50 was 52.6 nM.

With `Cn1cc(-c2cc(S(C)(=O)=O)ccc2Oc2cccc(NS(=O)(=O)c3cccc(OC(F)F)c3)c2)c2cc[nH]c2c1=O` [Example 48, 3-(difluoromethoxy)-N-{3-[2-(6-methyl-7-oxo-6,7-dihydro-1H-pyrrolo[2,3-c]pyridin-4-yl)-4-(methylsulfonyl)phenoxy]phenyl}benzenesulfonamide] as the molecule, how does the EC50 read?
Its EC50 is 172 nM.

How did the EC50 turn out when `Cn1cc(-c2cc(S(C)(=O)=O)ccc2Oc2ccc(F)cc2F)c2cc(CN3CCOCC3c3ccco3)[nH]c2c1=O` (stereo not shown) [Example 127, 4-[2-(2,4-difluorophenoxy)-5-(methylsulfonyl)phenyl]-2-{[3-(furan-2-yl)morpholin-4-yl]methyl}-6-methyl-1,6-dihydro-7H-pyrrolo[2,3-c]pyridin-7-one] was run?
The EC50 was 128 nM.

For `Cn1cc(-c2cc(S(C)(=O)=O)ccc2NC2CCN(S(=O)(=O)Cc3ccccc3)CC2)c2cc[nH]c2c1=O` [Example 101, 4-[2-{[1-(benzylsulfonyl)piperidin-4-yl]amino}-5-(methylsulfonyl)phenyl]-6-methyl-1,6-dihydro-7H-pyrrolo[2,3-c]pyridin-7-one], which EC50 is on record?
The EC50 was 72.9 nM.

For `CN1CCC(N2CCN(Cc3cc4c(-c5cc(S(C)(=O)=O)ccc5Oc5ccc(F)cc5F)cn(C)c(=O)c4[nH]3)CC2)CC1` [Example 125, 4-[2-(2,4-difluorophenoxy)-5-(methylsulfonyl)phenyl]-6-methyl-2-{[4-(1-methylpiperidin-4-yl)piperazin-1-yl]methyl}-1,6-dihydro-7H-pyrrolo[2,3-c]pyridin-7-one], which EC50 is on record?
The EC50 was 606 nM.

For `Cc1cc(-c2ccc(-c3cn(C)c(=O)c4[nH]ccc34)c(OCC3CC3)c2)[nH]n1` [Example 1, 4-[2-(cyclopropylmethoxy)-4-(3-methyl-1H-pyrazol-5-yl)phenyl]-6-methyl-1,6-dihydro-7H-pyrrolo[2,3-c]pyridin-7-one], which EC50 is on record?
Its EC50 is 151 nM.

With `CN(C)CC(=O)N1CCC(Nc2ccc(S(C)(=O)=O)cc2-c2cn(C)c(=O)c3[nH]ccc23)CC1` [Example 85, 4-[2-({1-[(dimethylamino)acetyl]piperidin-4-yl}amino)-5-(methylsulfonyl)phenyl]-6-methyl-1,6-dihydro-7H-pyrrolo[2,3-c]pyridin-7-one] as the molecule, how does the EC50 read?
The EC50 was > 1000 nM.

How did the EC50 turn out when `Cn1cc(-c2cc(S(C)(=O)=O)ccc2Oc2cccc(NS(=O)(=O)c3ccccc3C#N)c2)c2cc[nH]c2c1=O` [Example 55, 2-cyano-N-{3-[2-(6-methyl-7-oxo-6,7-dihydro-1H-pyrrolo[2,3-c]pyridin-4-yl)-4-(methylsulfonyl)phenoxy]phenyl}benzenesulfonamide] was run?
Its EC50 is 393 nM.

With `Cc1cc(F)ccc1S(=O)(=O)Nc1cccc(Oc2ccc(S(C)(=O)=O)cc2-c2cn(C)c(=O)c3[nH]ccc23)c1` [Example 52, 4-fluoro-2-methyl-N-{3-[2-(6-methyl-7-oxo-6,7-dihydro-1H-pyrrolo[2,3-c]pyridin-4-yl)-4-(methylsulfonyl)phenoxy]phenyl}benzenesulfonamide] as the molecule, how does the EC50 read?
The EC50 was 38.6 nM.

Which EC50 does the source give for `COc1ccc(S(=O)(=O)N2CCC(Nc3ccc(S(C)(=O)=O)cc3-c3cn(C)c(=O)c4[nH]ccc34)CC2)cc1` [Example 104, 4-[2-({1-[(4-methoxyphenyl)sulfonyl]piperidin-4-yl}amino)-5-(methylsulfonyl)phenyl]-6-methyl-1,6-dihydro-7H-pyrrolo[2,3-c]pyridin-7-one] here?
The EC50 was 176 nM.
